# Assay results taken from BindingDB's records for patent US10246444 (Sabila Biosciences, 2019).
# Molecular target: Epidermal growth factor receptor [T790M,L858R] (Homo sapiens, UniProt P00533, L858R/T790M)
# Assay: Kinase assay
# Description: The assay is performed by combining three components: DNA-tagged kinase; immobilized ligand; and a test compound. The ability of the test compound to compete with the immobilized ligand is measured via quantitative PCR of the DNA tag.For most assays, kinase-tagged T7 phage strains were prepared in an E. coli host derived from the BL21 strain. E. coli were grown to log-phase and infected with T7 phage and incubated with shaking at 32° C. until lysis. The lysates were centrifuged and filtered to remove cell debris. The remaining kinases were produced in HEK-293 cells and subsequently tagged with DNA for qPCR detection. […] The liganded beads were blocked with excess biotin and washed with blocking buffer (SeaBlock (Pierce), 1% BSA, 0.05% Tween 20, 1 mM DTT) to remove unbound ligand and to reduce nonspecific binding. […] All reactions were performed in polystyrene 96-well plates in a final volume of 0.135 ml. […] The kinase concentration in the eluates was measured by qPCR.
# Epidermal growth factor receptor [T790M,L858R], sequence (P00533 25-1210 T790M/L858R limits assumed): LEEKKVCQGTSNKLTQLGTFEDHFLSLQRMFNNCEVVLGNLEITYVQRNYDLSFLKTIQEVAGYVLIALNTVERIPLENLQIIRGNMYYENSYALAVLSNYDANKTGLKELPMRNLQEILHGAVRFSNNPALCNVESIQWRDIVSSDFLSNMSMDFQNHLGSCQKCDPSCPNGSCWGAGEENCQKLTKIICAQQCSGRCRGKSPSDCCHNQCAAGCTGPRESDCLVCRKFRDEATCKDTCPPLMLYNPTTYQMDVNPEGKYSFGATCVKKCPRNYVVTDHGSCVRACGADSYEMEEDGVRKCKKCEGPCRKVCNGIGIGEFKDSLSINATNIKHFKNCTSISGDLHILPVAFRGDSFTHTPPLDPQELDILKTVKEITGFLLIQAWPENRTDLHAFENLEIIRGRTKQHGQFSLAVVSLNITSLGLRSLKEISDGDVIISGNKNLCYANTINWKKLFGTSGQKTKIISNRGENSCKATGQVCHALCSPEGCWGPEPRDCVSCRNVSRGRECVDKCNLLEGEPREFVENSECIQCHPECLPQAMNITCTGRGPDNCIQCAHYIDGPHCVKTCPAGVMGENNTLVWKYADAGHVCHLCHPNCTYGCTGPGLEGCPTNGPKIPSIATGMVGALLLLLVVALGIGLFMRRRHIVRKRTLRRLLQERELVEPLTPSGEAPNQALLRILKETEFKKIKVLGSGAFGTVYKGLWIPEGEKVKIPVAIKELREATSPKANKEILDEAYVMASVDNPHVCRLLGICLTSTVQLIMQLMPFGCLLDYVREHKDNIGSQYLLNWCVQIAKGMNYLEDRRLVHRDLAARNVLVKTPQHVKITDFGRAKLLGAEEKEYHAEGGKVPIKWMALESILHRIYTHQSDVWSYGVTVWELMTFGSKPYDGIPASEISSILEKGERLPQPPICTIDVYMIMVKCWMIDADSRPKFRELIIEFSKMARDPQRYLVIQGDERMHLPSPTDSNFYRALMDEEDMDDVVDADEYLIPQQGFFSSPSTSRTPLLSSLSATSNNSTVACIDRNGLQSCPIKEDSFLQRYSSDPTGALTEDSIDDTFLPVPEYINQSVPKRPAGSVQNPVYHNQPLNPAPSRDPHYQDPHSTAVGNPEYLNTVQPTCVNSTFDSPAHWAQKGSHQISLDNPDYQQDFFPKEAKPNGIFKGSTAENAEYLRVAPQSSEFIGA
structure (smiles),measurement,value
"CCOc1cc2ncc(C#N)c(Nc3ccc(OCc4cccc(F)c4)c(Cl)c3)c2cc1NC(=O)CC1CCSS1 (stereo unspecified) [US10246444, Example 40]",Kd,> 10 µM
